Data: ChEMBL document CHEMBL2375321, “Discovery of 3,3'-diindolylmethanes as potent antileishmanial agents” (Eur J Med Chem, 2013)
pIC50: −log10 of the molar value. Values after ≈ are worked out from the molar mass of the structure shown. Active and inactive are the calls of the source. Unless noted, the calls are words filed in the database; no cut-off is given here.

Legend:
[1] = tested on: Mycobacterium intracellulare; experiment: Antibacterial activity against Mycobacterium intracellulare ATCC 23068 by alamar blue assay; format: functional, organism-based; conditions: for pIC50: read-out: IC50
Aspergillus fumigatus = experiment: Antifungal activity against Aspergillus fumigatus ATCC 204305 by CLSI method; format: functional, organism-based
Leishmania donovani [2] = experiment: Antileishmanial activity against axenic amastigote of Leishmania donovani after 72 hrs by alamar blue assay; format: functional, organism-based; conditions: for pIC50: read-out: IC50
Leishmania donovani [3] = experiment: Antileishmanial activity against promastigote of Leishmania donovani after 72 hrs by alamar blue assay; format: functional, organism-based; conditions: for pIC50: read-out: IC50
Cryptococcus neoformans = experiment: Antifungal activity against Cryptococcus neoformans ATCC 90113 by CLSI method; format: functional, organism-based
Candida albicans = experiment: Antifungal activity against Candida albicans ATCC 90028 by CLSI method; format: functional, organism-based
Vero = experiment: Cytotoxicity against african green monkey Vero cells up to 4.6 ug/ml after 48 hrs by neutral red assay; format: cell-based; conditions: chlorocebus sabaeus
Staphylococcus aureus [4] = experiment: Antibacterial activity against methicillin-resistant Staphylococcus aureus ATCC 33591 by CLSI method; format: functional, organism-based; conditions: for pIC50: read-out: IC50
Staphylococcus aureus [5] = experiment: Antibacterial activity against Staphylococcus aureus ATCC 29213 by CLSI method; format: functional, organism-based
[6] = Mycobacterium intracellulare, ATCC 23068
[7] = Staphylococcus aureus, ATCC 33591

SMILES	IC90 (Leishmania donovani [2]; Leishmania donovani, 72 h) [µM]	pIC50 (Leishmania donovani [2]; Leishmania donovani, 72 h)	IC90 (Leishmania donovani [3]; Leishmania donovani, 72 h) [µM]	pIC50 (Leishmania donovani [3]; Leishmania donovani, 72 h)	Activity (Vero)	IC50 (Leishmania donovani [2])	IC90 (Leishmania donovani [2])	other results
O=C(O)c1cn(C2CC2)c2cc(N3CCNCC3)c(F)cc2c1=O [CIPROFLOXACIN]								MBC [1, 6]: 3.02 µM (≈ 1 µg/mL); pIC50 [1, 6]: 6.00
Fc1ccc(C(c2c[nH]c3ccc(I)cc23)c2c[nH]c3ccc(I)cc23)cc1Br	31.4	4.74	18.2	5.01	Non-toxic			Activity (Aspergillus fumigatus): inactive; pIC50 (Cryptococcus neoformans): 4.78; MFC (Cryptococcus neoformans): 29.9 µM (≈ 20 µg/mL); MIC (Cryptococcus neoformans): 29.9 µM (≈ 20 µg/mL); Activity (Candida albicans): inactive
N=C(N)c1ccc(OCCCCCOc2ccc(C(=N)N)cc2)cc1 [PENTAMIDINE]	14.3		6.21	5.48				
COc1ccc2[nH]cc(C(c3cccs3)c3c[nH]c4ccc(OC)cc34)c2c1	84.8	4.23	65.8	4.42	Non-toxic			
COc1ccc2[nH]cc(C(c3ccc(O)cc3)c3c[nH]c4ccc(OC)cc34)c2c1	76.3	4.37	91	4.09	Non-toxic			
COc1ccc2[nH]cc(C(c3ccc([N+](=O)[O-])cc3)c3c[nH]c4ccc(OC)cc34)c2c1	64.2	4.83	18.8	4.92	Non-toxic			
Fc1cc(F)cc(C(c2c[nH]c3ccc(I)cc23)c2c[nH]c3ccc(I)cc23)c1	44.5	4.63	41.2	4.62	Non-toxic			
O=[N+]([O-])c1ccc(C(c2c[nH]c3ccccc23)c2c[nH]c3ccccc23)cc1	72.3	4.39	54.3	4.80	Non-toxic			
O=[N+]([O-])c1ccc(C(c2c[nH]c3ccc(I)cc23)c2c[nH]c3ccc(I)cc23)cc1	38.4	5.08	10.2	5.10	Non-toxic			
COc1ccc2[nH]cc(C(c3c(Cl)cccc3Cl)c3c[nH]c4ccc(OC)cc34)c2c1					Non-toxic	Not Active	inactive	MBC (Staphylococcus aureus [4]): inactive; MIC (Staphylococcus aureus [4]): inactive; pIC50 (Staphylococcus aureus [4]; [7]): 4.77; IC50 [1]: Not Active; MBC [1]: inactive; MIC [1]: inactive; IC50 (Leishmania donovani [3]): Not Active; IC90 (Leishmania donovani [3]): inactive; pIC50 (Staphylococcus aureus [5]): 5.12; MBC (Staphylococcus aureus [5]): inactive; MIC (Staphylococcus aureus [5]): inactive
O=[N+]([O-])c1ccc(C(c2c[nH]c3ccc(I)cc23)c2c[nH]c3ccc(I)cc23)o1	28.9	4.60	6.22	5.52	Non-toxic			MBC (Staphylococcus aureus [4]): inactive; MIC (Staphylococcus aureus [4]; [7]): 32.8 µM (≈ 20 µg/mL); pIC50 (Staphylococcus aureus [4]; [7]): 4.95; IC50 [1]: Not Active; MBC [1]: inactive; MIC [1]: inactive; pIC50 (Staphylococcus aureus [5]): 5.12; MBC (Staphylococcus aureus [5]): 16.4 µM (≈ 9.99 µg/mL); MIC (Staphylococcus aureus [5]): 16.4 µM (≈ 9.99 µg/mL)
Ic1ccc2[nH]cc(C(c3c4ccccc4cc4ccccc34)c3c[nH]c4ccc(I)cc34)c2c1					Non-toxic	Not Active	inactive	IC50 (Leishmania donovani [3]): Not Active; IC90 (Leishmania donovani [3]): inactive
COc1ccc2[nH]cc(C(c3ccc([N+](=O)[O-])o3)c3c[nH]c4ccc(OC)cc34)c2c1			60	4.43	Non-toxic	Not Active	inactive	
COc1ccc2[nH]cc(C(c3ccc(Br)cc3)c3c[nH]c4ccc(OC)cc34)c2c1			58.5	4.49	Non-toxic	Not Active	inactive	
Ic1ccc2[nH]cc(C(c3cccc4ccccc34)c3c[nH]c4ccc(I)cc34)c2c1					Non-toxic	Not Active	inactive	IC50 (Leishmania donovani [3]): Not Active; IC90 (Leishmania donovani [3]): inactive
Clc1cccc(Cl)c1C(c1c[nH]c2ccc(I)cc12)c1c[nH]c2ccc(I)cc12					Non-toxic	Not Active	inactive	IC50 (Leishmania donovani [3]): Not Active; IC90 (Leishmania donovani [3]): inactive
COc1ccc2[nH]cc(C(c3cccc4ccccc34)c3c[nH]c4ccc(OC)cc34)c2c1		4.48	82.9	4.18	Non-toxic		inactive	IC50 (Staphylococcus aureus [4]): Not Active; MBC (Staphylococcus aureus [4]): inactive; MIC (Staphylococcus aureus [4]): inactive; IC50 [1]: Not Active; MBC [1]: inactive; MIC [1]: inactive; pIC50 (Staphylococcus aureus [5]): 4.40; MBC (Staphylococcus aureus [5]): inactive; MIC (Staphylococcus aureus [5]): inactive
COc1ccc2[nH]cc(C(c3ccc(O)c(OC)c3)c3c[nH]c4ccc(OC)cc34)c2c1					Non-toxic	Not Active	inactive	IC50 (Leishmania donovani [3]): Not Active; IC90 (Leishmania donovani [3]): inactive
COc1ccc2[nH]cc(C(c3ccc(F)c(Br)c3)c3c[nH]c4ccc(OC)cc34)c2c1	66.8	4.32	46.6	4.80	Non-toxic			MBC (Staphylococcus aureus [4]): inactive; MIC (Staphylococcus aureus [4]): inactive; pIC50 (Staphylococcus aureus [4]; [7]): 5.33; MBC [1]: inactive; MIC [1, 6]: 41.8 µM (≈ 20 µg/mL); pIC50 [1, 6]: 4.40; pIC50 (Staphylococcus aureus [5]): 5.46; MBC (Staphylococcus aureus [5]): inactive; MIC (Staphylococcus aureus [5]): 10.5 µM (≈ 5.03 µg/mL)
c1ccc2c(C(c3c[nH]c4ccccc34)c3c[nH]c4ccccc34)c3ccccc3cc2c1		4.27	91.9	4.09	Non-toxic		inactive	
C[C@@H]1[C@H](O)[C@@H](C)/C=C/C=C/C=C/C=C/C=C/C=C/C=C/[C@H](O[C@@H]2O[C@H](C)[C@@H](O)[C@H](N)[C@@H]2O)C[C@@H]2O[C@](O)(C[C@@H](O)C[C@@H](O)[C@H](O)CC[C@@H](O)C[C@@H](O)CC(=O)O[C@H]1C)C[C@H](O)[C@H]2C(=O)O [AMPHOTERICIN B]	[…]		0.35					Activity (Aspergillus fumigatus): inactive; pIC50 (Cryptococcus neoformans): 6.07; MFC (Cryptococcus neoformans): 1.35 µM (≈ 1.25 µg/mL); MIC (Cryptococcus neoformans): 1.35 µM (≈ 1.25 µg/mL); Activity (Candida albicans): inactive
COc1cc(C(c2c[nH]c3ccccc23)c2c[nH]c3ccccc23)ccc1O		4.12	98.9	4.07	Non-toxic		inactive	
COc1ccc(C(c2c[nH]c3ccccc23)c2c[nH]c3ccccc23)cc1Br				4.08	Non-toxic	Not Active	inactive	MBC (Staphylococcus aureus [4]): inactive; MIC (Staphylococcus aureus [4]): inactive; pIC50 (Staphylococcus aureus [4]; [7]): 4.50; IC50 [1]: Not Active; MBC [1]: inactive; MIC [1]: inactive; IC90 (Leishmania donovani [3]): inactive; pIC50 (Staphylococcus aureus [5]): 5.11; MBC (Staphylococcus aureus [5]): inactive; MIC (Staphylococcus aureus [5]): inactive
COc1ccc2[nH]cc(C(c3c4ccccc4cc4ccccc34)c3c[nH]c4ccc(OC)cc34)c2c1		4.40	64.9	4.46	Non-toxic		inactive	
